From patent US20260262643A1, “HERBICIDAL BENZOXAZINES” (FMC CORPORATION, priority 2022, published 2026)

Tests used:
[1] = tested on: barnyardgrass; assay: Test C preemergence; assay type: in vivo, Echinochloa crusgalli; details: 0 to 100 scale (0 no effect, 100 complete control); for Plant response rating, Barnyardgrass: Preemergence, 500 g ai/ha, visual rating after 10 days; for Barnyardgrass plant response rating: Test C, preemergence, 125 g ai/ha
Procedure, shortened: (§1)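 Visual injury ratings on a 0–100 scale (100 = complete control) were made against untreated controls 10 days after treatment in the greenhouse. Compounds, formulated with surfactant in non-phytotoxic solvent, were sprayed on soil preemergence or onto one- to two-leaf plants 2–10 cm tall postemergence.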

[2] = tested on: blackgrass; assay: Test C preemergence; assay type: in vivo, Alopecurus myosuroides; details: 0 to 100 scale (0 no effect, 100 complete control); for Plant response rating, Blackgrass: Preemergence, 500 g ai/ha, visual rating after 10 days; for Blackgrass plant response rating: Test C, preemergence, 125 g ai/ha
Procedure, shortened: as §1

[3] = tested on: corn; assay: Test C preemergence; assay type: in vivo, Zea mays; details: 0 to 100 scale (0 no effect, 100 complete control); for Corn plant response rating: preemergence
Procedure, shortened: as §1

[4] = tested on: green foxtail; assay: Test C preemergence; assay type: in vivo, Setaria viridis; details: 0 to 100 scale (0 no effect, 100 complete control); for Foxtail, Green plant response rating: preemergence
Procedure, shortened: as §1

[5] = tested on: kochia; assay: Test C preemergence; assay type: in vivo, Bassia scoparia; details: 0 to 100 scale (0 no effect, 100 complete control); for Kochia plant response rating: preemergence
Procedure, shortened: as §1

[6] = tested on: oat, wild; assay: Test C preemergence; assay type: in vivo, Avena fatua; details: 0 to 100 scale (0 no effect, 100 complete control); for Oat, Wild plant response rating: preemergence
Procedure, shortened: as §1

[7] = tested on: pigweed, palmer; assay: Test C preemergence; assay type: in vivo, Amaranthus palmeri; details: 0 to 100 scale (0 no effect, 100 complete control); for Pigweed, Palmer plant response rating: preemergence
Procedure, shortened: as §1

[8] = tested on: ragweed; assay: Test C preemergence; assay type: in vivo, Ambrosia artemisiifolia; details: 0 to 100 scale (0 no effect, 100 complete control); for Ragweed plant response rating: preemergence
Procedure, shortened: as §1

[9] = tested on: ryegrass, Italian; assay: Test C preemergence; assay type: in vivo, Lolium multiflorum; details: 0 to 100 scale (0 no effect, 100 complete control); for Ryegrass, Italian plant response rating: preemergence
Procedure, shortened: as §1

[10] = tested on: soybean; assay: Test C preemergence; assay type: in vivo, Glycine max; details: 0 to 100 scale (0 no effect, 100 complete control); for Soybean plant response rating: preemergence
Procedure, shortened: as §1

[11] = tested on: wheat; assay: Test C preemergence; assay type: in vivo, Triticum aestivum; details: 0 to 100 scale (0 no effect, 100 complete control); for Wheat plant response rating: preemergence
Procedure, shortened: as §1

[12] = tested on: barnyardgrass; assay: Test C postemergence; assay type: in vivo, Echinochloa crusgalli; details: 10 days
Procedure, shortened: as §1

[13] = tested on: blackgrass; assay: Test C postemergence; assay type: in vivo, Alopecurus myosuroides; details: 10 days
Procedure, shortened: as §1

[14] = tested on: corn; assay: Test C postemergence; assay type: in vivo, Zea mays; details: 10 days
Procedure, shortened: as §1

[15] = tested on: green foxtail; assay: Test C postemergence; assay type: in vivo, Setaria viridis; details: 10 days
Procedure, shortened: as §1

[16] = tested on: kochia; assay: Test C postemergence; assay type: in vivo, Bassia scoparia; details: 10 days
Procedure, shortened: as §1

[17] = tested on: oat, wild; assay: Test C postemergence; assay type: in vivo, Avena fatua; details: 10 days
Procedure, shortened: as §1

[18] = tested on: pigweed, palmer; assay: Test C postemergence; assay type: in vivo, Amaranthus palmeri; details: 10 days
Procedure, shortened: as §1

[19] = tested on: ragweed; assay: Test C postemergence; assay type: in vivo, Ambrosia artemisiifolia; details: 10 days
Procedure, shortened: as §1

[20] = tested on: ryegrass, Italian; assay: Test C postemergence; assay type: in vivo, Lolium multiflorum; details: 10 days
Procedure, shortened: as §1

[21] = tested on: soybean; assay: Test C postemergence; assay type: in vivo, Glycine max; details: 10 days
Procedure, shortened: as §1

[22] = tested on: wheat; assay: Test C postemergence; assay type: in vivo, Triticum aestivum; details: 10 days
Procedure, shortened: as §1

[23] = tested on: galium; assay: Test C postemergence; assay type: in vivo, Galium aparine; details: 10 days
Procedure, shortened: as §1

[24] = tested on: horseweed; assay: Test C postemergence; assay type: in vivo, Erigeron canadensis; details: 10 days
Procedure, shortened: as §1

[25] = tested on: barnyardgrass; assay: Test D flooded paddy test; assay type: in vivo, Echinochloa crus-galli; details: 250 g ai/ha, applied to paddy water, visual rating after 13 to 14 days, scale 0 to 100 (0 no effect, 100 complete control)
Procedure, shortened: (§2)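 Plants grown to the 2-leaf stage; pots flooded to 3 cm above soil at treatment and held at that depth throughout. Test compounds applied directly to the paddy water. After 13 to 14 days in a greenhouse, response was rated visually versus controls on a 0 (no effect) to 100 (complete control) scale.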

[26] = tested on: ducksalad; assay: Test D flooded paddy test; assay type: in vivo, Heteranthera limosa; details: 250 g ai/ha, applied to paddy water, visual rating after 13 to 14 days, scale 0 to 100 (0 no effect, 100 complete control)
Procedure, shortened: as §2

[27] = tested on: rice; assay: Test D flooded paddy test; assay type: in vivo, Oryza sativa; details: 250 g ai/ha, applied to paddy water, visual rating after 13 to 14 days, scale 0 to 100 (0 no effect, 100 complete control)
Procedure, shortened: as §2

[28] = tested on: sedge, umbrella; assay: Test D flooded paddy test; assay type: in vivo, Cyperus difformis; details: 250 g ai/ha, applied to paddy water, visual rating after 13 to 14 days, scale 0 to 100 (0 no effect, 100 complete control)
Procedure, shortened: as §2

[29] = Preemergence, 500 g ai/ha, visual rating after 10 days
[30] = 125 g ai/ha, postemergence, 0 to 100 scale, 0 no effect, 100 complete control
[31] = Postemergence, 500 g ai/ha, visual 0 to 100 scale (0 no effect, 100 complete control)

For `Cc1ccc(-n2cnc(C(C)C)n2)cc1C(=O)N1C[C@H](C)Oc2c(F)cccc21` [Compound 242], the “Plant response rating, Barnyardgrass” value [1] was 100, the “Barnyardgrass plant response rating” value [1] was 100 and the “Plant response rating, Blackgrass” value [2] was 90. For the same molecule, the “Blackgrass plant response rating” value [2] was 90, the “Plant response rating, Corn” value [3, 29] was 70 and the “Corn plant response rating” value ([3]; Test C, 125 g ai/ha) was 30. For the same molecule, the “Plant response rating, Foxtail, Green” value [4, 29] was 100, the “Foxtail, Green plant response rating” value ([4]; Test C, 125 g ai/ha) was 100 and the “Plant response rating, Kochia” value [5, 29] was 100. For the same molecule, the “Kochia plant response rating” value ([5]; Test C, 125 g ai/ha) was 90, the “Plant response rating, Oat, Wild” value [6, 29] was 90 and the “Oat, Wild plant response rating” value ([6]; Test C, 125 g ai/ha) was 90. For the same molecule, the “Plant response rating, Pigweed, Palmer” value [7, 29] was 100, the “Pigweed, Palmer plant response rating” value ([7]; Test C, 125 g ai/ha) was 100 and the “Plant response rating, Ragweed” value [8, 29] was 100. The “Ragweed plant response rating” value ([8]; Test C, 125 g ai/ha) was 0, the “Plant response rating, Ryegrass, Italian” value [9, 29] was 100 and the “Ryegrass, Italian plant response rating” value ([9]; Test C, 125 g ai/ha) was 100. For the same molecule, the “Plant response rating, Soybean” value [10, 29] was 100, the “Soybean plant response rating” value ([10]; Test C, 125 g ai/ha) was 90 and the “Plant response rating, Wheat” value [11, 29] was 90. The “Wheat plant response rating” value ([11]; Test C, 125 g ai/ha) was 60, the “Plant response rating, Barnyardgrass” value [12, 30] was 90 and the “Plant response rating, Barnyardgrass” value [12, 31] was 100. The “Plant response rating, Blackgrass” value [13, 30] was 80, the “Plant response rating, Blackgrass” value [13, 31] was 100 and the “Plant response rating, Corn” value [14, 30] was 60. For the same molecule, the “Plant response rating, Corn” value [14, 31] was 90, the “Plant response rating, Foxtail, Green” value [15, 30] was 80 and the “Plant response rating, Foxtail, Green” value [15, 31] was 90. For the same molecule, the “Plant response rating, Kochia” value [16, 30] was 30, the “Plant response rating, Kochia” value [16, 31] was 80 and the “Plant response rating, Oat, Wild” value [17, 30] was 80. For the same molecule, the “Plant response rating, Oat, Wild” value [17, 31] was 90, the “Plant response rating, Pigweed, Palmer” value [18, 30] was 80 and the “Plant response rating, Pigweed, Palmer” value [18, 31] was 90. For the same molecule, the “Plant response rating, Ragweed” value [19, 30] was 60, the “Plant response rating, Ragweed” value [19, 31] was 90 and the “Plant response rating, Ryegrass, Italian” value [20, 30] was 90. The “Plant response rating, Ryegrass, Italian” value [20, 31] was 100, the “Plant response rating, Soybean” value [21, 30] was 100 and the “Plant response rating, Soybean” value [21, 31] was 100. For the same molecule, the “Plant response rating, Wheat” value [22, 30] was 80, the “Plant response rating, Wheat” value [22, 31] was 90 and the “Plant response rating, Galium” value [23, 30] was 100. For the same molecule, the “Plant response rating, Galium” value [23, 31] was 100, the “Plant response rating, Horseweed” value [24, 30] was 50 and the “Plant response rating, Horseweed” value [24, 31] was 80. For the same molecule, the “Plant response rating, Barnyardgrass (Flood)” value [25] was 55, the “Plant response rating, Ducksalad (Flood)” value [26] was 95 and the “Plant response rating, Rice (Flood)” value [27] was 15. The “Plant response rating, Sedge, Umbrella (Flood)” value [28] was 98.
For `Cc1ccc(-n2cnc(CC3CC3)n2)cc1C(=O)N1C[C@H](C)Oc2c(Cl)cccc21` [Compound 273], the “Plant response rating, Barnyardgrass” value [1] was 100, the “Barnyardgrass plant response rating” value [1] was 40 and the “Plant response rating, Blackgrass” value [2] was 50. For the same molecule, the “Blackgrass plant response rating” value [2] was 0, the “Corn plant response rating” value ([3]; 500 g ai/ha) was 10 and the “Corn plant response rating” value ([3]; Test C, 125 g ai/ha) was 0. The “Foxtail, Green plant response rating” value ([4]; 500 g ai/ha) was 100, the “Foxtail, Green plant response rating” value ([4]; Test C, 125 g ai/ha) was 100 and the “Kochia plant response rating” value ([5]; 500 g ai/ha) was 90. The “Kochia plant response rating” value ([5]; Test C, 125 g ai/ha) was 60, the “Oat, Wild plant response rating” value ([6]; 500 g ai/ha) was 80 and the “Oat, Wild plant response rating” value ([6]; Test C, 125 g ai/ha) was 20. The “Pigweed, Palmer plant response rating” value ([7]; 500 g ai/ha) was 100, the “Pigweed, Palmer plant response rating” value ([7]; Test C, 125 g ai/ha) was 90 and the “Ragweed plant response rating” value ([8]; 500 g ai/ha) was 0. The “Ragweed plant response rating” value ([8]; Test C, 125 g ai/ha) was 0, the “Ryegrass, Italian plant response rating” value ([9]; 500 g ai/ha) was 90 and the “Ryegrass, Italian plant response rating” value ([9]; Test C, 125 g ai/ha) was 70. The “Soybean plant response rating” value ([10]; 500 g ai/ha) was 70, the “Soybean plant response rating” value ([10]; Test C, 125 g ai/ha) was 10 and the “Wheat plant response rating” value ([11]; 500 g ai/ha) was 40. The “Wheat plant response rating” value ([11]; Test C, 125 g ai/ha) was 0, the “Plant response rating, Barnyardgrass” value [12, 30] was 30 and the “Plant response rating, Barnyardgrass” value [12, 31] was 70. For the same molecule, the “Plant response rating, Blackgrass” value [13, 30] was 10, the “Plant response rating, Blackgrass” value [13, 31] was 80 and the “Plant response rating, Corn” value [14, 30] was 10. The “Plant response rating, Corn” value [14, 31] was 30, the “Plant response rating, Foxtail, Green” value [15, 30] was 40 and the “Plant response rating, Foxtail, Green” value [15, 31] was 90. The “Plant response rating, Kochia” value [16, 30] was 70, the “Plant response rating, Oat, Wild” value [17, 30] was 0 and the “Plant response rating, Pigweed, Palmer” value [18, 30] was 90. For the same molecule, the “Plant response rating, Ragweed” value [19, 30] was 40, the “Plant response rating, Ryegrass, Italian” value [20, 30] was 0 and the “Plant response rating, Soybean” value [21, 30] was 100. For the same molecule, the “Plant response rating, Wheat” value [22, 30] was 10, the “Plant response rating, Galium” value [23, 30] was 70 and the “Plant response rating, Galium” value [23, 31] was 100. For the same molecule, the “Plant response rating, Horseweed” value [24, 30] was 0, the “Plant response rating, Horseweed” value [24, 31] was 40 and the “Plant response rating, Barnyardgrass (Flood)” value [25] was 0. For the same molecule, the “Plant response rating, Ducksalad (Flood)” value [26] was 15, the “Plant response rating, Rice (Flood)” value [27] was 0 and the “Plant response rating, Sedge, Umbrella (Flood)” value [28] was 40.
